Read-outs that look alike come from different tables or passages of the source.
How the values were obtained:
[1] = system: tyrosinase; set-up: method as in PMID 17295516; settings: cited from earlier work
[2] = molecular target: T1, murine tyrosinase (Mus musculus, UniProt P11344); experiment: Murine tyrosinase inhibitory assay (o-diphenolase activity, crude enzyme from B16-F10 melanoma cells); type: biochemical; settings: 200 μM, L-DOPA substrate;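 also: crude tyrosinase taken from lysed, dialyzed B16-F10 cell extract, with the inhibition reaction incubated for 2 h at 37 °C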
T1 construct: The cells were lysed by vortex and incubated at 4 °C for 1 h to solubilize the tyrosinase enzyme; endogenous in cells; host or cells: B16-F10 melanoma cells (Triton X-100 lysate, dialyzed)
T1 sequence (P11344 19-533): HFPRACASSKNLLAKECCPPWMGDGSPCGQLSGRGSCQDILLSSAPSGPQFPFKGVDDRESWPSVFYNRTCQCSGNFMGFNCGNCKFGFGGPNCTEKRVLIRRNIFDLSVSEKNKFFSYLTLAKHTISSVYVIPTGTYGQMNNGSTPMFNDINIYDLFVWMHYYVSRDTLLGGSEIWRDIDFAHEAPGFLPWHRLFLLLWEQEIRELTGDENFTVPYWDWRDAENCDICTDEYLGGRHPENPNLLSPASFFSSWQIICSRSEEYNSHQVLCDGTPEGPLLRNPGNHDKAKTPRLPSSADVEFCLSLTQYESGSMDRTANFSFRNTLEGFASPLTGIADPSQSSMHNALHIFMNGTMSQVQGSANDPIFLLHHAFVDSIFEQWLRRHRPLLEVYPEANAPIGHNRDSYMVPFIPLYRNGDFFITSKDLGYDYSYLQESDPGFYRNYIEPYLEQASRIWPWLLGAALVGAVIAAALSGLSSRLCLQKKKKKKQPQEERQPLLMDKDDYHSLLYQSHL

[3] = Cell viability assay (PrestoBlue resazurin); type: cell-based, Mus musculus (mouse); settings: mouse, 72 h, relative to control, read-out: % Cell Viability;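 also: mouse B16-F10 melanoma cells exposed to test samples for 72 h, with viability read as fluorescence of resorufin formed when living cells reduce PrestoBlue resazurin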
[4] = system: B16-F10 melanoma cells; experiment: Cell viability assay (PrestoBlue resazurin); type: cell-based, Mus musculus (mouse);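 also: mouse B16-F10 melanoma cells exposed to test samples for 72 h, with viability read as fluorescence of resorufin formed when living cells reduce PrestoBlue resazurin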
[5] = system: B16-F10 melanoma cells; experiment: Total melanin content assay; type: cell-based, Mus musculus (mouse); settings: for activity at 15 µM / activity at 30 µM: B16-F10, read-out: % Melanin Content; for activity at 15 µM / activity at 30 µM / % Melanin Content: 72 h, relative to control
Procedure: Mus musculus (mouse) melanoma cell line, B16-F10 (ATCC® Number: CRL-6475™, Manassas, VA, USA), was cultured in complete Dulbecco′s Modified Eagle′s Medium (DMEM, phenol red-free medium) containing 10% fetal bovine serum, 25 mM glucose, 4 mM L-glutamine, 1 mM sodium pyruvate, 10 μg/mL penicillin, and 10 μg/mL streptomycin, at 37 °C, with 5% carbon dioxide (CO2) in a humidified atmosphere.
The total melanin content, produced both extracellularly and intracellularly, was determined as follows: B16-F10 cells were seeded onto a 24-well plate at a concentration of 50,000 cells/0.5 mL/well and were incubated for 24 h, followed by treatment with either the test compounds or the control (0.5% DMSO), and then incubated for 72 h. For extraction, the total produced melanin and 0.5 mL of 2 N NaOH containing 20% DMSO were added directly to the cell culture medium, mixed by pipetting and then incubated at room temperature for 1 h. The lysed cell extract was centrifuged at 13,000× g for 5 min. Finally, the supernatant was transferred to a 96-well plate and the relative melanin content was detected at 405 nm using a micro plate reader. Kojic acid and oxyresveratrol were used as positive controls.

[6] = molecular target: mushroom tyrosinase (Agaricus bisporus, UniProt C7FF04); experiment: Mushroom tyrosinase inhibitory assay (o-diphenolase activity, L-DOPA as substrate); type: biochemical; settings: for inhibition at 200 µM: read-out: Mushroom Tyrosinase Inhibition % Inhibition (at 200 μM);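 as to all read-outs here: enzyme and test sample preincubated 10 min at 25 °C in pH 6.8 phosphate buffer, 50% DMSO vehicle as control, enzyme-free mixture as blank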
[7] = molecular target: mushroom tyrosinase; settings: cited from earlier work
[8] = system: murine melan-a melanocytes; set-up: method as in PMID 19182387; settings: cited from earlier work
[9] = system: human melanoma cells (MMV II); set-up: method as in PMID 25248426; settings: cited from earlier work
[10] = system: murine B16-F10 melanoma cells; set-up: method as in PMID 17873839, PMID 14717847, PMID 16794334, PMID 26656314; settings: cited from earlier work
[11] = read-out: Murine Tyrosinase Inhibition, % (at 200 μM)
[12] = 30 μM, 72 h, relative to control
[13] = read-out: monophenolase activity of mushroom tyrosinase IC50

Chain of mushroom tyrosinase (Agaricus bisporus, UniProt C7FF04) (G1K3P4 entry or part of it): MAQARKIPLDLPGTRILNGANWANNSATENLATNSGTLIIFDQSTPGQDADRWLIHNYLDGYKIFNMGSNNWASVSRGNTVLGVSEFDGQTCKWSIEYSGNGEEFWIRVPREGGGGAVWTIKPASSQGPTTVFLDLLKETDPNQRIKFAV
Chain of mushroom tyrosinase (Agaricus bisporus, UniProt C7FF04) (C7FF04 2-392): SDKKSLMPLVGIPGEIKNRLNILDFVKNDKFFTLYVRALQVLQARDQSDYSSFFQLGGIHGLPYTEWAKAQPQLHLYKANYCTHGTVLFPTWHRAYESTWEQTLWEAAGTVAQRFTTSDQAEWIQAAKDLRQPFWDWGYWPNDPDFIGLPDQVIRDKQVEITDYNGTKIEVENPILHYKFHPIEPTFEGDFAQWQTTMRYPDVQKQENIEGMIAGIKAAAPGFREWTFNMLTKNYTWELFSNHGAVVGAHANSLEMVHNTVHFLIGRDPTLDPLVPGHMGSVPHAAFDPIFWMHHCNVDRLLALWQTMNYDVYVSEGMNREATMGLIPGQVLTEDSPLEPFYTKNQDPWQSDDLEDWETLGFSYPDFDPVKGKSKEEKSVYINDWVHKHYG

## O=c1c(-c2ccc(O)cc2)coc2c(O)c(O)ccc12 [7,8,4′-trihydroxyisoflavone]
[1]
  inhibition of monophenolase and diphenolase activities of tyrosinase (in words): irreversibly inhibit

## COc1cc(O)c(-c2coc3cc(O)cc(O)c3c2=O)cc1O [Compound 5, Khrinone B]
[2]; [11]
  inhibition at 200 µM: 10.1 ± 3%
[3]; B16-F10 melanoma cells
  viability at 72 h, 15 µM: 95.1 ± 5.4%
  viability at 72 h, 30 µM: 60%
[4]; [12]
  % Cell Viability: 62.3 ± 15.1%
[5]; Mus musculus, 15 μM
  activity at 15 µM: 84.1 ± 5.3%
[5]; Mus musculus, 30 μM
  activity at 30 µM: 34.7 ± 12.3%
[6]; 200 μM, L-DOPA substrate
  inhibition at 200 µM: 72.7 ± 2.2%

## COc1cc2c(cc1O)[C@@H]1COc3cc(O)ccc3[C@@H]1O2 [Compound 27, (6aR,11aR)-3,8-Dihydroxy-9-methoxy pterocarpan]
[2]; [11]
  inhibition at 200 µM: 29.2 ± 2.9%
[3]; B16-F10 melanoma cells
  viability at 72 h, 15 µM: 106 ± 4.9%
  viability at 72 h, 30 µM: 14%
[4]; 15 μM
  toxicity to B16-F10 cells (in words): no toxicity
[4]; [12]
  % Cell Viability: 14.5 ± 0.9%
[5]; 30 μM
  effect on melanin content (in words, Figure 1): inhibitory effect of melanogenesis
[5]; Mus musculus, B16-F10, 15 μM, read-out: inhibition of melanogenesis
  inhibition at 15 µM: 59%
[5]; Mus musculus, 15 μM
  activity at 15 µM: 41.9 ± 0.4%
[5]; Mus musculus, 30 μM
  activity at 30 µM: 53.5 ± 0.4%
[6]; 200 μM, L-DOPA substrate
  inhibition at 200 µM: 84.6 ± 0.6%

## COc1ccc(-c2coc3cc(O)ccc3c2=O)cc1O [Compound 2, Calycosin]
[7]; read-out: monophenolase inhibition of mushroom tyrosinase IC50
  IC50: 38.4 µM
[2]; read-out: Murine Tyrosinase Inhibition, % (at 200 μM), symbol
  inhibition at 200 µM: < 0%
[3]; B16-F10 melanoma cells
  viability at 72 h, 15 µM: 99.1 ± 9.2%
  viability at 72 h, 30 µM: 101 ± 1.9%
[5]; Mus musculus, 15 μM
  activity at 15 µM: 143 ± 8.2%
[5]; Mus musculus, 30 μM
  activity at 30 µM: 197 ± 6.4%
[6]; o-diphenolase, L-DOPA substrate
  inhibitory activity on mushroom tyrosinase (in words): did not show inhibitory activity
[6]; read-out: Mushroom Tyrosinase Inhibition % Inhibition (at 300 μM)
  inhibition at 300 µM: 0%
[8]
  effect on melanin biosynthesis (in words): reduced melanin biosynthesis

## COc1cc2c(=O)c(-c3ccc(O)cc3)coc2cc1O [glycitein, 6-methoxy-7,4′-dihydroxyisoflavone]
[7]; [13]
  IC50: 237 µM

## O=c1c(O)c(-c2ccc(O)cc2)oc2cc(O)cc(O)c12 [kaempferol]
[9]
  effect on melanogenesis (in words): melanogenesis-promoting actions

## Alpinetin [Compound 26]
[2]
  Murine Tyrosinase Inhibition, % (at 200 μM), symbol: - (no inhibition at 200 μM)
[4]; 15 μM
  % Cell Viability: 77.0 ± 12.7%
[4]; 30 μM
  % Cell Viability: 77.1 ± 10.2%
[5]; 15 μM
  % Melanin Content: 89.7 ± 0.4%
[5]; 30 μM
  % Melanin Content: 92.3 ± 1.6%
[6]; 200 μM, L-DOPA substrate
  Mushroom Tyrosinase Inhibition % Inhibition (at 200 μM): 36.9 ± 0.5%
[6]; L-DOPA substrate, read-out: Mushroom Tyrosinase Inhibition IC50
  IC50: 450 ± 48.5 µM

## O=c1c(-c2ccc(O)cc2)coc2c(O)c(O)cc(O)c12 [5,7,8,4′-tetrahydroxyisoflavone]
[1]
  inhibition of monophenolase and diphenolase activities of tyrosinase (in words): irreversibly inhibit

## COc1ccc([C@H]2COc3cc(O)ccc3C2=O)c(OC)c1 [Compound 14, (3S)-Sativanone]
[2]; [11]
  inhibition at 200 µM: 9.5 ± 1.6%
[3]; B16-F10 melanoma cells
  viability at 72 h, 15 µM: 107 ± 10.6%
  viability at 72 h, 30 µM: 60%
[4]; [12]
  % Cell Viability: 64.3 ± 23.7%
[5]; Mus musculus, 15 μM
  activity at 15 µM: 124 ± 4.3%
[5]; Mus musculus, 30 μM
  activity at 30 µM: 128 ± 6%
[6]; 500 μM, L-DOPA substrate
  inhibition at 500 µM: 13%

## COc1ccc(C2COc3c(ccc(O)c3OC)C2)c(O)c1O [Compound 21, (3R,S)-3′-Hydroxy-8-methoxy vestitol]
[2]; [11]
  inhibition at 200 µM: 11.4 ± 2.5%
[3]; B16-F10 melanoma cells
  viability at 72 h, 15 µM: 102.9 ± 1%
  viability at 72 h, 30 µM: 60%
[4]; [12]
  % Cell Viability: 62.4 ± 3.2%
[5]; Mus musculus, 15 μM
  activity at 15 µM: 97 ± 6.3%
[5]; Mus musculus, 30 μM
  activity at 30 µM: 36.3 ± 0.1%
[6]; 200 μM, L-DOPA substrate
  inhibition at 200 µM: 64.1 ± 1.3%

## O=c1c(-c2ccc(O)cc2)coc2cc(O)c(O)cc12 [6,7,4′-trihydroxyisoflavone]
[7]; [13]
  IC50: 9.2 µM

## O=c1cc(-c2ccc(O)cc2)oc2cc(O)cc(O)c12 [apigenin]
[9]
  effect on melanogenesis (in words): melanogenesis-promoting actions

## O=c1cc(-c2ccc(O)c(O)c2)oc2cc(O)cc(O)c12 [luteolin]
[9]
  effect on melanogenesis (in words): melanogenesis-promoting actions

## O=C1C[C@@H](c2ccc(O)cc2)Oc2cc(O)cc(O)c21 [naringenin]
[10]
  effect on melanogenesis (in words): stimulate melanogenesis

## O=c1c(-c2ccc(O)cc2)coc2cc(O)ccc12 [daidzein, 7,4′-dihydroxyisoflavone]
[7]; [13]
  IC50: 264 µM

## O=c1c(O)c(-c2ccc(O)c(O)c2)oc2cc(O)cc(O)c12 [quercetin]
[10]
  effect on melanogenesis (in words): stimulate melanogenesis
[9]
  effect on melanogenesis (in words): melanogenesis-promoting actions

## O=c1cc(-c2ccccc2)oc2cc(O)cc(O)c12 [chrysin]
[9]
  effect on melanogenesis (in words): melanogenesis-promoting actions

## O=c1c(-c2ccc(O)cc2)coc2cc(O)cc(O)c12 [Compound 4, Genistein]
[7]; [13]
  IC50: 822 µM
[2]; [11]
  inhibition at 200 µM: 9.9 ± 3.1%
[3]
  viability at 72 h, 15 µM: 128 ± 3.5%
  viability at 72 h, 30 µM: 93.8 ± 5.7%
[5]; 30 μM
  effect on melanin content (in words, Figure 1): increased the melanin content
[5]; Mus musculus, 15 μM
  activity at 15 µM: 165.1 ± 1.6%
[5]; Mus musculus, 30 μM
  activity at 30 µM: 192 ± 13.9%
[6]; pre-incubation with enzyme in absence of L-DOPA, coloured product at 475 nm
  behaviour as substrate of mushroom tyrosinase (in words): chromogenic substrate analogs
[9]
  effect on melanogenesis (in words): melanogenesis-promoting actions

## COc1cc(O)c2c(=O)c(O)c(-c3ccc(O)c(O)c3)oc2c1 [rhamnetin]
[9]
  effect on melanogenesis (in words): melanogenesis-promoting actions

Reference: paper PMC6100075, “Correlation between the Potency of Flavonoids on Mushroom Tyrosinase Inhibitory Activity and Melanin Synthesis in Melanocytes” (Molecules : A Journal of Synthetic Chemistry and Natural …, 2018)
